In PubChem BioAssay (NCI):
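Dose response: 5 concentrations. Exposure: 48 h. Format: 96-well plates. Endpoint: linear interpolation; highest concentration if not reached. TGI: concentration producing complete growth inhibition.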

Columns and labels:
Experiment in all cases: NCI anticancer screen, dose series, 48 h
786-0 renal = test system: 786-0 renal
A498 renal = test system: A498 renal
A549 NSCLC = test system: A549 NSCLC
ACHN renal = test system: ACHN renal
BT-549 breast = test system: BT-549 breast
CAKI-1 renal = test system: CAKI-1 renal
CCRF-CEM leukemia = test system: CCRF-CEM leukemia
COLO 205 colon = test system: COLO 205 colon
DU-145 prostate = test system: DU-145 prostate
EKVX NSCLC = test system: EKVX NSCLC
HCC-2998 colon = test system: HCC-2998 colon
HCT-116 colon = test system: HCT-116 colon
HCT-15 colon = test system: HCT-15 colon
HL-60(TB) leukemia = test system: HL-60(TB) leukemia
HOP-62 NSCLC = test system: HOP-62 NSCLC
HOP-92 NSCLC = test system: HOP-92 NSCLC
HS 578T breast = test system: HS 578T breast
HT29 colon = test system: HT29 colon
IGROV1 ovarian = test system: IGROV1 ovarian
K-562 leukemia = test system: K-562 leukemia
KM12 colon = test system: KM12 colon
LOX IMVI melanoma = test system: LOX IMVI melanoma
M14 melanoma = test system: M14 melanoma
MALME-3M melanoma = test system: MALME-3M melanoma
MCF7 breast = test system: MCF7 breast
MDA-MB-231 breast = test system: MDA-MB-231 breast
MDA-MB-435 = test system: MDA-MB-435
MDA-N = test system: MDA-N
MOLT-4 leukemia = test system: MOLT-4 leukemia
NCI-H226 lung = test system: NCI-H226 lung
NCI-H23 lung = test system: NCI-H23 lung
NCI-H460 lung = test system: NCI-H460 lung
NCI-H522 lung = test system: NCI-H522 lung
NCI/ADR-RES ovarian = test system: NCI/ADR-RES ovarian
OVCAR-3 ovarian = test system: OVCAR-3 ovarian
OVCAR-4 ovarian = test system: OVCAR-4 ovarian
OVCAR-5 ovarian = test system: OVCAR-5 ovarian
OVCAR-8 ovarian = test system: OVCAR-8 ovarian
PC-3 prostate = test system: PC-3 prostate
RPMI-8226 leukemia = test system: RPMI-8226 leukemia
RXF 393 renal = test system: RXF 393 renal
SF-268 CNS = test system: SF-268 CNS
SF-295 CNS = test system: SF-295 CNS
SF-539 CNS = test system: SF-539 CNS
SK-MEL-2 melanoma = test system: SK-MEL-2 melanoma
SK-MEL-28 melanoma = test system: SK-MEL-28 melanoma
SK-MEL-5 melanoma = test system: SK-MEL-5 melanoma
SK-OV-3 ovarian = test system: SK-OV-3 ovarian
SN12C renal = test system: SN12C renal
SNB-19 CNS = test system: SNB-19 CNS
SNB-75 CNS = test system: SNB-75 CNS
SW-620 colon = test system: SW-620 colon
T-47D breast = test system: T-47D breast
TK-10 renal = test system: TK-10 renal
U251 CNS = test system: U251 CNS
UACC-257 melanoma = test system: UACC-257 melanoma
UACC-62 melanoma = test system: UACC-62 melanoma
UO-31 renal = test system: UO-31 renal
SR leukemia = test system: SR leukemia

COC(=O)C1=C(OC(=O)/C(=C/c2ccccc2)c2ccc([N+](=O)[O-])cc2)C(C(=O)OC)[C@@]2(O)[C@@H](C(=O)OC)[C@H](C)C[C@@H]1[C@@H]2C(=O)OC (stereo not given in full)
TGI (786-0 renal): > 100 µM | TGI (A498 renal): > 100 µM | TGI (A549 NSCLC): > 100 µM | TGI (ACHN renal): > 100 µM | TGI (BT-549 breast): > 100 µM | TGI (CAKI-1 renal): > 100 µM | TGI (CCRF-CEM leukemia): > 100 µM | TGI (COLO 205 colon): > 100 µM | TGI (DU-145 prostate): > 100 µM | TGI (EKVX NSCLC): > 100 µM | TGI (HCC-2998 colon): > 100 µM | TGI (HCT-116 colon): > 100 µM | TGI (HCT-15 colon): > 100 µM | TGI (HL-60(TB) leukemia): > 100 µM | TGI (HOP-62 NSCLC): > 100 µM | TGI (HOP-92 NSCLC): > 100 µM | TGI (HS 578T breast): > 100 µM | TGI (HT29 colon): > 100 µM | TGI (IGROV1 ovarian): > 100 µM | TGI (K-562 leukemia): > 100 µM | TGI (KM12 colon): > 100 µM | TGI (LOX IMVI melanoma): > 100 µM | TGI (M14 melanoma): > 100 µM | TGI (MALME-3M melanoma): > 100 µM | TGI (MCF7 breast): > 100 µM | TGI (MDA-MB-231 breast): > 100 µM | TGI (MDA-MB-435): > 100 µM | TGI (MDA-N): > 100 µM | TGI (MOLT-4 leukemia): > 100 µM | TGI (NCI-H226 lung): > 100 µM | TGI (NCI-H23 lung): > 100 µM | TGI (NCI-H460 lung): > 100 µM | TGI (NCI-H522 lung): > 100 µM | TGI (NCI/ADR-RES ovarian): > 100 µM | TGI (OVCAR-3 ovarian): > 100 µM | TGI (OVCAR-4 ovarian): > 100 µM | TGI (OVCAR-5 ovarian): > 100 µM | TGI (OVCAR-8 ovarian): > 100 µM | TGI (PC-3 prostate): > 100 µM | TGI (RPMI-8226 leukemia): > 100 µM | TGI (RXF 393 renal): > 100 µM | TGI (SF-268 CNS): > 100 µM | TGI (SF-295 CNS): > 100 µM | TGI (SF-539 CNS): > 100 µM | TGI (SK-MEL-2 melanoma): > 100 µM | TGI (SK-MEL-28 melanoma): > 100 µM | TGI (SK-MEL-5 melanoma): > 100 µM | TGI (SK-OV-3 ovarian): > 100 µM | TGI (SN12C renal): > 100 µM | TGI (SNB-19 CNS): > 100 µM | TGI (SNB-75 CNS): > 100 µM | TGI (SW-620 colon): > 100 µM | TGI (T-47D breast): > 100 µM | TGI (TK-10 renal): > 100 µM | TGI (U251 CNS): > 100 µM | TGI (UACC-257 melanoma): > 100 µM | TGI (UACC-62 melanoma): > 100 µM | TGI (UO-31 renal): > 100 µM

CCOC(=O)C1CSCCSC1
TGI (A498 renal): > 100 µM | TGI (A549 NSCLC): > 100 µM | TGI (ACHN renal): > 100 µM | TGI (CCRF-CEM leukemia): > 100 µM | TGI (COLO 205 colon): > 100 µM | TGI (DU-145 prostate): > 100 µM | TGI (HCC-2998 colon): > 100 µM | TGI (HCT-116 colon): > 100 µM | TGI (HCT-15 colon): > 100 µM | TGI (HOP-92 NSCLC): > 100 µM | TGI (HS 578T breast): > 100 µM | TGI (HT29 colon): > 100 µM | TGI (K-562 leukemia): > 100 µM | TGI (KM12 colon): > 100 µM | TGI (LOX IMVI melanoma): > 100 µM | TGI (MCF7 breast): > 100 µM | TGI (MDA-MB-231 breast): > 100 µM | TGI (MDA-MB-435): > 100 µM | TGI (MDA-N): > 100 µM | TGI (MOLT-4 leukemia): > 100 µM | TGI (NCI-H226 lung): > 100 µM | TGI (NCI-H23 lung): > 100 µM | TGI (NCI-H460 lung): 57.6 µM | TGI (NCI-H522 lung): > 100 µM | TGI (NCI/ADR-RES ovarian): > 100 µM | TGI (OVCAR-8 ovarian): > 100 µM | TGI (PC-3 prostate): > 100 µM | TGI (RXF 393 renal): > 100 µM | TGI (SF-268 CNS): > 100 µM | TGI (SF-295 CNS): > 100 µM | TGI (SK-MEL-28 melanoma): > 100 µM | TGI (SK-MEL-5 melanoma): > 100 µM | TGI (SK-OV-3 ovarian): > 100 µM | TGI (SN12C renal): > 100 µM | TGI (SNB-19 CNS): > 100 µM | TGI (SNB-75 CNS): > 100 µM | TGI (SR leukemia): > 100 µM | TGI (SW-620 colon): > 100 µM | TGI (TK-10 renal): > 100 µM | TGI (U251 CNS): > 100 µM | TGI (UACC-257 melanoma): > 100 µM | TGI (UO-31 renal): > 100 µM
